Laboratory results reported in ChEMBL document CHEMBL1151352, “Antifeedant Diterpenes For the Gypsy Moth Larvae From Kalmia latifolia: Isolation and Characterization of Ten Grayanoids” (1980).

Experiments:
Type in all cases: functional
Lymantria dispar [1] = experiment: Antifeedant activity in gypsy moth ten third-instar larvae at 2.5 ug/ml relative to control
Lymantria dispar [2] = experiment: Antifeedant activity in gypsy moth ten third-instar larvae at 60 ug/ml relative to control
Lymantria dispar [3] = experiment: Antifeedant activity in gypsy moth ten third-instar larvae at 7.5 ug/ml relative to control
Lymantria dispar [4] = experiment: Antifeedant activity in gypsy moth ten third-instar larvae at 27 ug/ml relative to control
Lymantria dispar [5] = experiment: Antifeedant activity in gypsy moth ten third-instar larvae at 30 ug/ml relative to control
Lymantria dispar [6] = experiment: Antifeedant activity in gypsy moth ten third-instar larvae at 45 ug/ml relative to control
Lymantria dispar [7] = experiment: Antifeedant activity in gypsy moth ten third-instar larvae at 15 ug/ml relative to control
Lymantria dispar [8] = experiment: Antifeedant activity in gypsy moth ten third-instar larvae at 20 ug/ml relative to control
Lymantria dispar [9] = experiment: Antifeedant activity in gypsy moth ten third-instar larvae at 32.5 ug/ml relative to control
Lymantria dispar [10] = experiment: Antifeedant activity in gypsy moth ten third-instar larvae at 17.5 ug/ml relative to control

Work on `CC(=O)O[C@@H]1[C@@H](OC(C)=O)[C@@]2(O)[C@@H]([C@@H]3O[C@@H]3C2(C)C)[C@](C)(O)[C@@H]2CC[C@@H]3[C@@H](O)[C@]12C[C@@]3(C)O` [KALMITOXIN V] yielded an Activity (Lymantria dispar [1]) of 92%.
Molecule `CC1(C)[C@@H](O)C[C@H]2[C@](C)(O)[C@@H]3CC[C@@H]4[C@@H](O)[C@]3(C[C@@]4(C)O)[C@H](O)[C@@H](O)[C@@]21O` [KALMITOXIN I] has an Activity (Lymantria dispar [2]) of 23%.
Work on `CC(=O)O[C@@H]1[C@@H](O)[C@@]23C[C@@H](CC[C@H]2[C@@](C)(O)[C@@H]2[C@@H]4O[C@@H]4C(C)(C)[C@@]12O)[C@](C)(O)C3` [LYONIOL A] yielded an Activity (Lymantria dispar [3]) of 95%.
Work on `CC(=O)O[C@@H]1[C@@H](O)[C@]23C[C@@](C)(O)[C@H](CC[C@H]2[C@@](C)(O)[C@@H]2C[C@H](O)C(C)(C)[C@@]12O)[C@H]3O` [KALMITOXIN III] yielded an Activity (Lymantria dispar [4]) of 99%.
With `CC(=O)O[C@@H]1[C@@H](O)[C@]23C[C@@](C)(O)[C@H](CC[C@H]2[C@@](C)(O)[C@@H]2[C@@H]4O[C@@H]4C(C)(C)[C@@]12O)[C@H]3O` [KALMOTOXIN IV] the Activity (Lymantria dispar [5]) was 47%.
In the case of `CC(=O)O[C@@H]1[C@@H](O)[C@@]2(O)[C@@H]([C@@H](O)[C@H](O)C2(C)C)[C@](C)(O)[C@@H]2CC[C@@H]3[C@@H](OC(C)=O)[C@]12C[C@@]3(C)O` [KALMITOXIN VI], the Activity (Lymantria dispar [6]) is reported as 106%.
Molecule `C=C1[C@@H]2CC[C@@H]3[C@@H](O)[C@@]2(C[C@@H](O)[C@@]2(O)[C@H]1C[C@H](O)C2(C)C)C[C@@]3(C)O` has an Activity (Lymantria dispar [7]) of 65%.
Work on `C=C1[C@@H]2CC[C@@H]3C[C@@]2(C[C@@H](O)[C@@]2(O)[C@H]1C[C@H](O)C2(C)C)C[C@@]3(C)O` yielded an Activity (Lymantria dispar [8]) of 121%.
For `CC1(C)[C@@H](O)C[C@H]2[C@](C)(O)[C@@H]3CC[C@@H]4[C@@H](O)[C@@]3(C[C@@H](O)[C@@]21O)C[C@@]4(C)O` [GRAYANOTOXIN III], the Activity (Lymantria dispar [9]) was 49%.
Work on `C=C1[C@@H]2CC[C@@H]3[C@@H](O)[C@]2(C[C@@]3(C)O)[C@H](O)[C@@H](O)[C@@]2(O)[C@H]1C[C@H](O)C2(C)C` [KALMITOXIN II] yielded an Activity (Lymantria dispar [10]) of 86%.
